pKi: −log10 of the molar value. Numbered stars: 1 amine (or outer) side, 2 acyl side, 3 side chain; on linkers, the order of the positions; unused ones are H or OH. Square brackets hold non-standard residues; d marks the D form. Peptide text beside a SMILES is read from it. * marks the point of attachment. X1 = O=C(O)C1(OCCCCC(=O)[*:2])CC(O)C(N[*:1])C([C@@H](O)[C@H](O)CO)O1; NH(1-naphthylmethyl) = c1ccc2c(CN*)cccc2c1
Assay: Tested for inhibition of hemagglutinination in chicken red blood cell (RBC)
Type: functional, Gallus gallus

Row | Compound | pKi
1 | C=CC(=O)NOCCCOCCCCOC1(C(N)=O)CC(O)C(NC(C)=O)C([C@@H](O)[C@H](O)CO)O1 (some centres undefined) | < 3.22
2 | COC(=O)C1(OC)CC(O)C(NC(C)=O)C([C@@H](O)[C@H](O)CO)O1 (some centres undefined) | 1.85
3 | C=CC(=O)NCCCOCCCCOC1(C(=O)O)CC(O)C(NC(C)=O)C([C@@H](O)[C@H](O)CO)O1 (some centres undefined) | 3.00
4 | CC(=O)NC1C(OC(=O)CNS(=O)(=O)c2cccc3c(N(C)C)cccc23)CC(OCCCCCCC(=O)NCc2cccc3ccccc23)(C(=O)O)OC1[C@@H](O)[C@H](O)CO (some centres undefined) | 5.52
5 | COC1(C(=O)O)CC(O)C(NC(C)=O)C([C@@H](O)C(O)O)O1 (some centres undefined) | 2.60
6 | C=CC(=O)NOCCCOCCCCOC1(C(C)=O)CC(O)C(NC(C)=O)C([C@@H](O)[C@H](O)CO)O1 (some centres undefined) | < 3.22
7 | C=CC(=O)NOCCCOCCCCOC1(C(=O)O)CC(O)C(NC(C)=O)C([C@@H](O)[C@H](O)CO)O1 (some centres undefined) | 6.52
8 | COC1(C(=O)O)CC(O)C(NC(C)=O)C([C@@H](O)[C@H](O)CO)O1 (some centres undefined) | 2.60
9 | CC(=O)NC1C(O)CC(OCCCCC(=O)NCC(=O)NCC(=O)NCC(=O)NCC(=O)NCc2cccc3ccccc23)(C(=O)O)OC1[C@@H](O)[C@H](O)CO (some centres undefined) (Ac-[X1]GGGG-{NH(1-naphthylmethyl)}) | 4.52

Source: ChEMBL document CHEMBL1127361, “Polyacrylamides bearing pendant alpha-sialoside groups strongly inhibit agglutination of erythrocytes by influenza A virus: multivalency and steric stabilization of particulate biological systems” (J Med Chem, 1994)
